According to publication PMC12257540, “From Inhibitors to PET: SAR-Based Development of [^18F]SK60 for mIDH1 Imaging” (Journal of Medicinal Chemistry, 2025):
Where “and” joins values, the source holds several entries; their conditions need not be identical. Equal values may be shown once.

Assays:
[1] = Ex vivo biodistribution in naïve mice; parameters: species or system CD-1 mice; settings: i.v.
Experimental: [ ^ 18 F]-SK60 (151 ± 37.0 kBq) diluted in 200 μL of sterile isotonic saline was injected into the tail vein of restrained, awake mice. The animals were anesthetized with isoflurane at 5 (n = 2), 15 (n = 1–2), 30 (n = 3), and 60 (n = 3) min after injection; blood was collected from the retro-orbital plexus with a heparinized glass Pasteur pipet, and the anesthetized animal was sacrificed by cervical dislocation. Blood plasma was obtained by centrifugation of the whole blood (8000 rpm, 4 °C, 2 min). […] From the measured data, the uptake of the activity in the different tissues and organs at the different time points p.i. was calculated as a percentage of injected dose per gram of tissue (% ID/g) and standardized uptake values (SUV).

[2] = In vivo metabolism in naïve mice (radio-RP-HPLC and radio-MLC of plasma and brain); parameters: species or system CD-1 mice; settings: 30 min p.i., i.v.; for parent radioligand fraction in brain: mouse brain; for parent radioligand fraction in plasma: mouse plasma
Experimental: The metabolic stability of [ ^ 18 F]-SK60 was investigated ex vivo by radio-RP-HPLC and radio-micellar-HPLC (MLC) analyses of plasma and brain samples obtained from naïve female mice (n = 3) at 30 min post intravenous injection (p.i.). For the preparation of the RP-HPLC samples, two solvent systems MeCN/water (9/1; v/v) and MeOH/water (9/1; v/v) were tested for activity extraction from the plasma and brain samples. With both systems, recoveries of higher than 95% could be obtained. […] For the radio-MLC analyses, the brain and plasma samples were treated with sodium dodecyl sulfate and directly injected into the MLC system. Despite the slightly different elution profile compared to the RP-HPLC system caused by different separation mechanisms, the quantification of the peaks gave similar results (Figure B). Altogether, the results obtained with these two complementary systems indicate a high metabolic stability of [ ^ 18 F]-SK60 in mice without the formation of brain-penetrable radiometabolites.
[ ^ 18 F]-SK60 (24.3 ± 2.89 MBq) diluted in 200 μL of sterile isotonic saline was injected into the tail vein of restrained, awake mice. Thirty min after injection, animals were anesthetized with isoflurane, blood was collected from the retro-orbital plexus with a heparinized glass Pasteur pipet, and the anesthetized animal was sacrificed by cervical dislocation. Blood plasma was obtained by centrifugation of the whole blood (8000 rpm, 4 °C, 2 min). The brain was isolated, rapidly rinsed with 1 mL isotonic saline to remove superficial blood, and finally homogenized in 1 mL deionized water in an ice–water bath (Potter B. Braun, 1000 rpm, 10 strokes).
Protein precipitation and extraction were performed by using an ice-cold MeCN/water (9:1 v/v) or MeOH/water (9:1 v/v) mixture at a 4:1 (v/v) solvent-to-sample ratio for plasma or brain homogenates. Samples were vortexed for 3 min, equilibrated on ice for 5 min, and centrifuged at 10,000 rpm for 5 min. […] Combined supernatants were concentrated under nitrogen at 75 °C to ∼100 μL and analyzed via radio-HPLC using a Reprosil-Pur 120 C18-AQ column with a gradient MeCN/20 mM NH4OAcaq (pH 6.8) elution (gradient: eluent A 10% MeCN/20 mM NH4OAcaq.; eluent B 90% MeCN/20 mM NH4OAcaq.; 0–5 min 100% A, 5–17 min up to 100% B, 17–26 min 100% B, 26–27 min up to 100% A, 27–30 min 100% A). […]
For the preparation of the MLC samples, mouse plasma (20–50 μL, 2–3 kBq) was dissolved in 200 μL of 200 mM aqueous sodium dodecyl sulfate (SDS) and injected into the MLC system. […] The MLC system consisted of a JASCO PU-980 pump, an AS-2055Plus autoinjector with a 2 mL sample loop, and a UV-1575 detector coupled with a γ radioactivity HPLC detector (Gabi Star, raytest Isotopenmessgeräte GmbH; Straubenhardt; Germany). […]

In the case of `Cc1cccc(NC(=O)c2nn(Cc3ccc([18F])cc3)c3c2CN(C(=O)c2ccc[nH]2)CC3(C)C)c1` [[18F]SK60], the “activity in kidneys and bladder” value ([1]; kidneys and bladder, 60 min p.i.) is reported as < 1 SUVmean, the accumulation in liver ([1]; liver, 5 min p.i.) is reported as ~7 SUVmean and the “accumulation in small intestine” value ([1]; small intestine, 60 min p.i.) is reported as ~13 SUVmean. The “parent radioligand fraction in brain” value ([2]; MLC) was 100%, the “parent radioligand fraction in plasma” value ([2]; MLC) was 79% and the “parent radioligand fraction in brain” value ([2]; RP-HPLC) was 100%. The “parent radioligand fraction in plasma” value ([2]; RP-HPLC) was 80 ± 2% and 80%.
